Data reported in patent US20150045367A1, “CINNAMIC ACID HYDROXYAMIDES AS INHIBITORS OF HISTONE DEACETYLASE 8” (PHARMACYCLICS, INC., priority 2011, published 2015).

Experiments:
HDAC6 = biological target: T1, HDAC6 (Homo sapiens, UniProt Q9UBN7); assay: Histone deacetylase activity, continuous trypsin-coupled assay; type: biochemical; conditions: trypsin-coupled fluorescence assay, acetyl-Gly-Ala-(N-acetyl-Lys)-AMC substrate
T1 sequence (Q9UBN7 1-1215): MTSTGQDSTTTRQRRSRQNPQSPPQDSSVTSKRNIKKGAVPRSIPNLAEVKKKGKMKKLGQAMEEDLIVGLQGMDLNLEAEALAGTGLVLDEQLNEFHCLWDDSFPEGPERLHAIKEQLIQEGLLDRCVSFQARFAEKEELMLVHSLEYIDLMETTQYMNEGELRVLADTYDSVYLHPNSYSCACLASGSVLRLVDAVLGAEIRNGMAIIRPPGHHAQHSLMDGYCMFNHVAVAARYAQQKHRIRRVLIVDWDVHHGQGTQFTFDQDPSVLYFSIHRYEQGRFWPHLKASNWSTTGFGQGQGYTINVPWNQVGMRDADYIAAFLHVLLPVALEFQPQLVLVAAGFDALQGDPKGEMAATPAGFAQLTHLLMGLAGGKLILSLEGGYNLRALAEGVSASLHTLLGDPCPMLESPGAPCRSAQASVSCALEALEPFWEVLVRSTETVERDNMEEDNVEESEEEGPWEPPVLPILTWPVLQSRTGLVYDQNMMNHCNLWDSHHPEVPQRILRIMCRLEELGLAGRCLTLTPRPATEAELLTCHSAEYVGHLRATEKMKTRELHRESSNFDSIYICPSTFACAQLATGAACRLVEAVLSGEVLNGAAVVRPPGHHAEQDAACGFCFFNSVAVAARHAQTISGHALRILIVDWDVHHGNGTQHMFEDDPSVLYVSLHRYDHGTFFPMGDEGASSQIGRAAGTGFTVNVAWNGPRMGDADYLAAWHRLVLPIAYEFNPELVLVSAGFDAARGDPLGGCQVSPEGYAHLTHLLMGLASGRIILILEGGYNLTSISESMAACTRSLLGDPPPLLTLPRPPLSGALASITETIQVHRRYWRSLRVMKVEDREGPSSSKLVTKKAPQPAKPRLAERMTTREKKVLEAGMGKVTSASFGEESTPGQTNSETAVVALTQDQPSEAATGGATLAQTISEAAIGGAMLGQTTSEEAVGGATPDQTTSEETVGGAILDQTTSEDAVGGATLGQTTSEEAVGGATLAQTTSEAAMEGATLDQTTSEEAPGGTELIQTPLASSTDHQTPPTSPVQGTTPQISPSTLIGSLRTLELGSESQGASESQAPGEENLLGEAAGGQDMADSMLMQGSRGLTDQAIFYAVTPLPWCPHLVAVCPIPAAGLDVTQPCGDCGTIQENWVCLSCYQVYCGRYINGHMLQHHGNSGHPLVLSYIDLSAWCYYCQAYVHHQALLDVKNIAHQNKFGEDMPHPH
Experimental: (§1) HDAC activity is measured using a continuous trypsin-coupled assay that has been described in detail previously (US 20070281934; Schultz et. al., Biochemistry, 43 (34), 11083-11091, 2004; Kim et al. (2006), Methods Mol. Biol., 325:273-283). For inhibitor characterization, measurements are performed in a reaction volume of 100 µL using 96-well assay plates in a fluorescence plate reader. For each isozyme, the HDAC protein in reaction buffer (50 mM HEPES, 100 mM KCl, 0.001% Tween-20, 5% DMSO, pH 7.4, supplemented with bovine serum albumin at concentrations of 0-0.05%, is mixed with inhibitor at various concentrations and allowed to incubate for 15 minutes. Trypsin is added to a final concentration of 50 nM, and acetyl-Gly-Ala-(N-acetyl-Lys)-AMC is added to a final concentration of 25-100 μM to initiate the reaction. After a 30 minute lag time, the fluorescence is measured over a 30 minute time frame using an excitation wavelength of 355 nm and a detection wavelength of 460 nm. The increase in fluorescence with time is used as the measure of the reaction rate. Inhibition constants Ki(app) were obtained using the program BatchKi (Biokin, Pullman, Wash.).

HDAC8 = biological target: T2, HDAC8 (Homo sapiens, UniProt Q9BY41); assay: as above; type: biochemical; conditions: trypsin-coupled fluorescence assay, acetyl-Gly-Ala-(N-acetyl-Lys)-AMC substrate
T2 sequence (Q9BY41 1-377): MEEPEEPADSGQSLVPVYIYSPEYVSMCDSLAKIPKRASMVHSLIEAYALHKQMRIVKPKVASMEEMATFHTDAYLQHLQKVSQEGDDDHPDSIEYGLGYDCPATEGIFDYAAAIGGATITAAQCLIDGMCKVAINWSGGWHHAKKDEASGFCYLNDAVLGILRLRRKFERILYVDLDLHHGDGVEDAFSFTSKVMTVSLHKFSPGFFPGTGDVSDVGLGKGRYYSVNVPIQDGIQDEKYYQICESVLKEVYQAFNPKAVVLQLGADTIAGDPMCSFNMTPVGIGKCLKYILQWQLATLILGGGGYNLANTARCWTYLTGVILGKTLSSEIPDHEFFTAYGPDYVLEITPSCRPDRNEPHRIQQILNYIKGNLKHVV
Experimental: as §1

HDAC1 = HDAC1 (Homo sapiens, UniProt Q13547); assay: as above; type: biochemical; conditions: trypsin-coupled fluorescence assay, acetyl-Gly-Ala-(N-acetyl-Lys)-AMC substrate
Sequence of HDAC1 (Q13547 whole entry): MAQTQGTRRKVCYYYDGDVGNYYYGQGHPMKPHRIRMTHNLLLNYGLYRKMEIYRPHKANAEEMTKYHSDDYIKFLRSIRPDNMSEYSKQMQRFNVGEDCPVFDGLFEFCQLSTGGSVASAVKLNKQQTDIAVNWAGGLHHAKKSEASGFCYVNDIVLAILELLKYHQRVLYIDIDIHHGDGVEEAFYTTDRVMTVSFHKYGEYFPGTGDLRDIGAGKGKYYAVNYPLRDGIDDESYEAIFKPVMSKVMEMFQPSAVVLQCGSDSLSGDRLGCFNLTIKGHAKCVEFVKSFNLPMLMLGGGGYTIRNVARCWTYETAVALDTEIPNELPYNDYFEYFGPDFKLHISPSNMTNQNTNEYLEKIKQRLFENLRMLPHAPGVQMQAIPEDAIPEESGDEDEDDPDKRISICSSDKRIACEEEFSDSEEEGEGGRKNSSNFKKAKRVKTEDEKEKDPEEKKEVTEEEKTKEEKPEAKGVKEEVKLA
Experimental: as §1

Jurkat cells = assay: Cell proliferation assay, growth inhibition by Alamar Blue; type: cell-based; conditions: Homo sapiens, 72 h, treated with compound for 3 days
Experimental: Cell lines are obtained from DSMZ (Braunschweig, Germany) or ATCC (Manassas, Va.). Cells are grown in RPMI 1640 with 10% fetal bovine serum in a 5% CO2/air incubator at 37° C. Thapsigargin and BAPTA-AM are from Calbiochem (San Diego, Calif.). 3-((dimethylamino)methyl)-N-(2-(4-(hydroxycarbamoyl)phenoxy)ethyl)benzofuran-2-carboxamide is a broad-spectrum HDAC inhibitor which was synthesized as previously described. Other analogs with varying degrees of specificity towards the HDAC isoforms are synthesized as described herein.
Tumor cell lines and human umbilical vein endothelial cells (HUVEC) are cultured for at least two doubling times, and growth is monitored at the end of compound exposure using an Alamar Blue™ (Biosource, Camarillo, Calif.) fluorometric cell proliferation assay as recommended by the manufacturer. Compounds are assayed in triplicate wells in 96-well plates. The concentration required to inhibit cell growth by 50% (GI50) and 95% confidence intervals are estimated from nonlinear regression using a 4-parameter logistic equation. The effect of HDAC8 selective inhibitor compounds on cell proliferation in Jurkat cells is measured. Apoptosis is measured by Annexin-V flow cytommetry. Growth inhibiton iss measured by Alamar Blue assay. Cells are treated with compound for 3 days.

IC50 (HDAC6) [µM]	IC50 (HDAC8) [µM]	IC50 (HDAC1) [µM]	GI50 (Jurkat cells) [µM]	Compound
0.1 to 1	≤ 0.1	1 to 10	3.37	COc1cccc(Oc2ccccc2/C=C/C(=O)NO)c1 [Compound 15, (E)-N-hydroxy-3-(2-(3-methoxyphenoxy)phenyl)acrylamide]
1 to 10	≤ 0.1	1 to 10	> 20	O=C(/C=C/c1ccccc1Oc1cccnc1)NO [Compound 16, (E)-N-Hydroxy-3-(2-(pyridin-3-yloxy)phenyl)acrylamide]
> 10	≤ 0.1	> 10	–	O=C(/C=C/c1ccccc1Oc1ccncc1)NO [Compound 17, (E)-N-Hydroxy-3-(2-(pyridin-4-yloxy)phenyl)acrylamide]
1 to 10	≤ 0.1	1 to 10	9.7	O=C(/C=C/c1ccccc1OC1CCN(C(=O)c2ccccc2)CC1)NO [Compound 20, (E)-3-(2-(1-benzoylpiperidin-4-yloxy)phenyl)-N-hydroxyacrylamide]
> 10	≤ 0.1	> 10	–	CC(=O)Nc1ccc(Oc2cccc(Cl)c2)c(/C=C/C(=O)NO)c1 [Compound 42, (E)-3-(5-acetamido-2-(3-chlorophenoxy)phenyl)-N-hydroxyacrylamide]
1 to 10	≤ 0.1	> 10	–	O=C(/C=C/c1cc(NCc2cccnc2)ccc1Oc1ccc(F)cc1)NO [Compound 49, (E)-3-(2-(4-fluorophenoxy)-5-(pyridin-3-ylmethylamino)phenyl)-N-hydroxyacrylamide]
0.1 to 1	≤ 0.1	1 to 10	–	O=C(/C=C/c1ccc(OCc2cccnc2)cc1Oc1cccc(Cl)c1)NO [Compound 59, (E)-3-(2-(3-chlorophenoxy)-4-(pyridin-3-ylmethoxy)phenyl)-N-hydroxyacrylamide]
0.1 to 1	≤ 0.1	1 to 10	–	O=C(/C=C/c1ccc(OCCN2CCOCC2)cc1Oc1cccc(Cl)c1)NO [Compound 67, (E)-3-(2-(3-chlorophenoxy)-4-(2-morpholinoethoxy)phenyl)-N-hydroxyacrylamide]
0.1 to 1	≤ 0.1	1 to 10	–	CN1CCN(CCOc2ccc(/C=C/C(=O)NO)c(Oc3cccc(Cl)c3)c2)CC1 [Compound 68, (E)-3-(2-(3-chlorophenoxy)-4-(2-(4-methylpiperazin-1-yl)ethoxy)phenyl)-N-hydroxyacrylamide]
0.1 to 1	≤ 0.1	0.1 to 1	–	CN(C)CCOc1ccc(/C=C/C(=O)NO)c(Oc2cccc(Cl)c2)c1 [Compound 69, (E)-3-(2-(3-chlorophenoxy)-4-(2-(dimethylamino)ethoxy)phenyl)-N-hydroxyacrylamide]
1 to 10	≤ 0.1	> 10	–	COCCOc1ccc(/C=C/C(=O)NO)c(Oc2ccc(Cl)c(Cl)c2)c1 [Compound 80, (E)-3-(2-(3,4-dichlorophenoxy)-4-(2-methoxyethoxy)phenyl)-N-hydroxyacrylamide]

Second part, the compound before the results:

Compound	IC50 (HDAC6) [µM]	IC50 (HDAC8) [µM]	IC50 (HDAC1) [µM]	GI50 (Jurkat cells) [µM]
O=C(/C=C/c1ccccc1Oc1ccc(Cl)cc1)NO [Compound 6, (E)-3-(2-(4-chlorophenoxy)phenyl)-N-hydroxyacrylamide]	1 to 10	≤ 0.1	1 to 10	1.43
O=C(/C=C/c1ccccc1Oc1ccccc1)NO [Compound 7, (E)-N-Hydroxy-3-(2-phenoxyphenyl)acrylamide]	0.1 to 1	≤ 0.1	1 to 10	–
Cc1ccc(Oc2ccccc2/C=C/C(=O)NO)cc1 [Compound 8, (E)-3-(2-(p-Tolyloxy)phenyl)-N-hydroxyacrylamide]	0.1 to 1	≤ 0.1	1 to 10	6.1
O=C(/C=C/c1ccccc1Oc1ccc(F)cc1)NO [Compound 9, (E)-3-(2-(4-Fluorophenoxy)phenyl)-N-hydroxyacrylamide]	1 to 10	≤ 0.1	1 to 10	2
COc1ccc(Oc2ccccc2/C=C/C(=O)NO)cc1 [Compound 10, (E)-N-hydroxy-3-(2-(4-methoxyphenoxy)phenyl)acrylamide]	0.1 to 1	≤ 0.1	1 to 10	2.25
O=C(/C=C/c1ccccc1Oc1cccc(Cl)c1)NO [Compound 11, (E)-3-(2-(3-Chlorophenoxy)phenyl)-N-hydroxyacrylamide]	0.1 to 1	≤ 0.1	1 to 10	1.98
O=C(/C=C/c1ccccc1Oc1ccc(Cl)c(Cl)c1)NO [Compound 12, (E)-3-(2-(3,4-Dichlorophenoxy)phenyl)-N-hydroxyacrylamide]	1 to 10	≤ 0.1	1 to 10	1.8
Cc1cccc(Oc2ccccc2/C=C/C(=O)NO)c1 [Compound 13, (E)-N-hydroxy-3-(2-(m-tolyloxy)phenyl)acrylamide]	1 to 10	≤ 0.1	1 to 10	2.5
O=C(/C=C/c1ccccc1Oc1cccc(F)c1)NO [Compound 14, (E)-3-(2-(3-Fluorophenoxy)phenyl)-N-hydroxyacrylamide]	1 to 10	≤ 0.1	1 to 10	3.58
